In this assay the target is T1, ribose binding protein (RBP) (Caldanaerobacter subterraneus, UniProt Q8RD41).
T1 construct: gene RbsB; RF125: RBP with human FKBP12 (V24A and C22A) inserted at position 125, without the NFM and CFM mutations
Briefly: isothermal titration calorimetry.

Each structure is given as a SMILES string.

T1 sequence (Q8RD41 24-313): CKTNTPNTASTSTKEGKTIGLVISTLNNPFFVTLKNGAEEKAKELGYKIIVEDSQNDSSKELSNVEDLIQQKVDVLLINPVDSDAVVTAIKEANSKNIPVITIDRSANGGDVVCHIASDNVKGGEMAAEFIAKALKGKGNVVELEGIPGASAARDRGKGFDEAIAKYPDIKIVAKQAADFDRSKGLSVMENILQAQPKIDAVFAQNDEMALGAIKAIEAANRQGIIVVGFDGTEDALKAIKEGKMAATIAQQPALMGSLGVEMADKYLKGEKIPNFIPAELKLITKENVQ
T1 sequence (P62942 with tags, fused parts or gaps C23A/V25A partner): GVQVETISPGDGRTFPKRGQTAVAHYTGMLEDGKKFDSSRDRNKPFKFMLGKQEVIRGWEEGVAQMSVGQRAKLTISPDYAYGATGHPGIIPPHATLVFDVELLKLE

For `O=C[C@H](O)[C@H](O)[C@H](O)CO` [ribose], the Kd (commonly the constant that tells how readily two partners part at equilibrium) was found to be 12.8 nM.
